The values below come from article PMC8430704, “Novel Sulfonamide-Based Carbamates as Selective Inhibitors of BChE” (International Journal of Molecular Sciences, 2021).

Structures are written as SMILES. Some results are limits rather than exact numbers.

One data set has as its target T1, AChE from electric eel (Electrophorus electricus, UniProt O42275).
T1 construct: from tissue
In words: AChE inhibition, modified Ellman's method. The format is biochemical. As for the experimental part: (§1) The ability of all synthesized derivatives to inhibit eeAChE (acetylcholinesterase from electric eel, Electrophorus electricus) and eqBChE (butyrylcholinesterase from equine serum) was determined in vitro using the modified Ellman´s method. […] Ellmanʼs method is widely used for measuring cholinesterase activity and the efficiency of cholinesterase inhibitors. The principle of this simple method is the determination of the SH and -S-S- groups. The activity of the cholinesterase is measured indirectly by quantifying the concentration of 2-nitro-5-sulfanylbenzoic acid ion formed in the reaction between 5,5′-dithiobis-2-nitrobenzoic acid (DTNB) and thiocholine (i.e., the product of the acetylthiocholine hydrolysis catalysed by cholinesterase).
(§2) All studied compounds were dissolved in DMSO (concentration 0.01 M) and diluted in demineralized water (concentration 0.001 M). The ability of the studied compounds to inhibit eeAChE and eqBChE was determined using modified Ellman´s method at 25 °C in the presence of phosphate buffered saline (PBS, 0.1 M, pH 7.4) in a glass cuvette with 1 cm optical path. The enzyme activity in the total reaction mixture (2 mL) was 0.2 U/mL; the concentration of acetylthiocholine (ATCh) or butyrylthiocholine (BTCh) was 40 μM; and the concentration of DTNB was 0.1 mM for all reactions. The inhibitory activity of the studied derivatives was evaluated based on the ratio v0/vi (v0 is the rate of ATCh or BTCh hydrolysis in the absence of the inhibitor, vi is the rate of ATCh or BTCh hydrolysis in the presence of the inhibitor). The IC50 value was obtained from the dependence v0/vi on the concentration of the tested compound (inhibitor).
(§3) The determination of v0 was done as follows. Into the cuvette, PBS (0.1 M, pH 7.4), DTNB, and ATCh (BTCh) were placed. The enzymatic reaction was started by adding the enzyme. […] The measurement was performed at least in triplicate, and average v0 was determined.
(§4) Then, vi (for the given concentration of inhibitor) was determined. Into the cuvette, DTNB, ATCh (BTCh), a chosen volume of the suitably diluted inhibitor (to achieve the required concentration of inhibitor in the total reaction mixture), and a certain volume of PBS (to achieve the total volume of the reaction mixture 2 mL after adding the enzyme) were placed. The enzymatic reaction was started by adding the enzyme. […] Five different concentrations of the inhibitor were used, and each measurement was performed at least in duplicate.
In general terms: DTNB colorimetry detects thiols as they appear.

Data set [1] deals with T2, BChE from equine serum (Equus caballus, UniProt P81908).
T2 construct: butyrylcholinesterase from equine serum; from tissue; host or cells: equine serum
In words: BChE inhibition, modified Ellman's method. In kind it is biochemical. To be noted: for IC50: IC50 (µM) BChE, eqBChE, modified Ellman's method, 25 °C, PBS pH 7.4, mean ± SD, n = 3; for SI (selectivity index) = IC50 (AChE)/IC50 (BChE): value over 1 = more potent inhibition of BChE; for fold higher inhibitory activity against BChE than rivastigmine: ratio of BChE IC50 vs RIV. How it is done: Based on IC50 values for both cholinesterases, selectivity indexes (SI) as the ratio of IC50 for AChE/IC50 for BChE to quantify the preference for BChE were calculated.
as §1, §2, §3, §4

In data set [2] the test system is human BChE. The settings on record: cited from earlier work.
The subject of data set [3] is human BChE. To be noted: cited from earlier work. This is another data set of the same source.
Data set [4] is described as follows: Preliminary stability test (decomposition in buffer, HPLC). As for the experimental part:
pH (6, 7.4, 8). Measurement of these degradations was performed by HPLC in reverse phase
acetonitrile/water (98:2). The compound was stirred in a tempered buffer (37 °C) of appropriate
pH and a sample was taken for HPLC analysis at a specified time.

The target of data set [5] is T2, BChE from equine serum. Put plainly: Reactivation (decarbamylation) of inhibited BChE. In kind it is biochemical. To be noted: BChE from equine serum inhibited ≥ 95%, dilution into PBS. As for the experimental part: The procedure is described in Section 3.4.
Monitoring of enzyme reactivation was performed as follows. […] The excess inhibitor was removed by dilution into PBS. Samples were withdrawn at successive time points and assayed to measure recovery of enzymatic activity (Ellman´s method was used). […] All experiments were performed in duplicate at least.

Data set [6] deals with T2, BChE from equine serum. Put plainly: Carbamylation of BChE (progressive inhibition kinetics). To be noted: from kobs vs. inhibitor concentration. The format is biochemical.
Procedure: The evaluation of BChE carbamylation was performed on the basis of the measured dependences % residual activity vs. time in the presence of appropriate concentration of inhibitor. […] These dependences were evaluated by non-linear regression and the pseudo-first-order rate constants kobs for progressive inhibition at several inhibitor concentrations were obtained.
The decrease in enzyme activity over time due to inhibitor binding was monitored by the Ellman´s method. Pursuant the procedure described in Carletti [86], the determination was performed subsequently: the reaction mixture containing PBS (0.1 M, pH 7.4), BChE and chosen inhibitor in an appropriate concentration was prepared and intensively stirred. In given times DTNB and BTCh were added to the sample withdrawn from stirred reaction mixture, quickly mixed and absorbance was measured. Consequently, the enzyme activity was determined. Based on knowledge of enzyme activity in the absence of the inhibitor (i.e., 100% activity), the percentages of residual activity in presence of the inhibitor were calculated. Then the dependence of percentage of residual activity vs. time was constructed [87]. By nonlinear regression of these dependences the values of kobs were obtained and subsequently rate constants for carbamylation were calculated. All experiments were performed in duplicate at least.

T2 sequence (P81908 whole entry): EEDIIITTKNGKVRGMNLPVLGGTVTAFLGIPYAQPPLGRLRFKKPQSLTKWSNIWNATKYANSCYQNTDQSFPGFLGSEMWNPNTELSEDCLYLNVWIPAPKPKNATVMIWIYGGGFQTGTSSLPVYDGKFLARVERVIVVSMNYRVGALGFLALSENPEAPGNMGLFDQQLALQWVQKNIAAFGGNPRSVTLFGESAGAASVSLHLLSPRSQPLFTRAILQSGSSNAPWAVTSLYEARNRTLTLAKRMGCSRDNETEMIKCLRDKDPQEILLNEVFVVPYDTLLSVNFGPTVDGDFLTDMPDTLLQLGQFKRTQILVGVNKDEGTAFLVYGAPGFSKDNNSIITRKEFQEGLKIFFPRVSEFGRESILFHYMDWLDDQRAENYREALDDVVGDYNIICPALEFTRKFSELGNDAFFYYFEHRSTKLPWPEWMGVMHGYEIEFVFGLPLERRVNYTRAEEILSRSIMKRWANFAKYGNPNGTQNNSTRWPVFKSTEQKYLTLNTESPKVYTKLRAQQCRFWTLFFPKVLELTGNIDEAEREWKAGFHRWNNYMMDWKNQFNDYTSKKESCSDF
T1 sequence (O42275 24-633): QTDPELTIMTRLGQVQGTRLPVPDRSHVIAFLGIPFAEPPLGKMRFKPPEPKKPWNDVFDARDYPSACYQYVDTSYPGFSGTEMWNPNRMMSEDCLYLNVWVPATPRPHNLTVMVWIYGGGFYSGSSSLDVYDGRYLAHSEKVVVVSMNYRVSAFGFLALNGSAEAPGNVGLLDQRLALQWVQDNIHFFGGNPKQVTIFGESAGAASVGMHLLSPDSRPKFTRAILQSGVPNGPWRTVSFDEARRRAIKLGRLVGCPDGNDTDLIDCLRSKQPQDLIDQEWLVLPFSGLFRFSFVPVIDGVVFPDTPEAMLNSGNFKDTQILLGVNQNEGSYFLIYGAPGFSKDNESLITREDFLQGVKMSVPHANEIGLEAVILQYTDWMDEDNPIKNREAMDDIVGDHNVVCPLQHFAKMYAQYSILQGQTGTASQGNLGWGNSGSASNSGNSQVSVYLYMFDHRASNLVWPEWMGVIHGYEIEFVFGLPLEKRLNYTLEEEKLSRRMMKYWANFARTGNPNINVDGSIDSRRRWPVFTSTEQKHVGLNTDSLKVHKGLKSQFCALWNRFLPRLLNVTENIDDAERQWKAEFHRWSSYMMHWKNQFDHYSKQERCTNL

In turn, `O=C(N[C@@H](Cc1ccccc1)CS(=O)(=O)Nc1ccc(Cl)c(Cl)c1)OCc1ccccc1` [Compound 5g, Benzyl {(2S)-1-[(3,4-dichlorophenyl)sulfamoyl]-3-phenylpropan-2-yl}carbamate] came in with a half-maximal inhibitory concentration (IC50) on AChE from electric eel of 78.83 ± 0.63 µM. On BChE from equine serum [1], the 50% inhibitory concentration (IC50) amounted to 12.6 ± 0.31 µM and the “SI (selectivity index) = IC50 (AChE)/IC50 (BChE)” value (from here on “SI (selectivity index) = IC50”) was determined as 6.25.

As to `CCN(C)C(=O)Cl` [EMCC, N,N-ethylmethylcarbaryl chloride], the “reactivation of human BChE upon dilution” value in the data set with human BChE [2] (upon dilution) was “complete and rapid reactivation”.

For `CC(C)C[C@@H](CS(=O)(=O)NCc1ccco1)NC(=O)OCc1ccccc1` [Compound 5m, Benzyl {(2S)-1-[(furan-2-ylmethyl)sulfamoyl]-4-methylpentan-2-yl}carbamate], the IC50 was 131.8 ± 0.42 µM on AChE from electric eel and 19.99 ± 0.17 µM at BChE from equine serum [1].

`CC(C)C[C@@H](CS(=O)(=O)NCCc1ccccc1)NC(=O)OCc1ccccc1` [Compound 5f, Benzyl {(2S)-4-methyl-1-[(2-phenylethyl)sulfamoyl]pentan-2-yl}carbamate] yielded an IC50 against AChE from electric eel of 115 ± 6.22 µM. In addition, on BChE from equine serum [1], 15.3 ± 0.38 µM corresponded to half-maximal inhibition (IC50) and the “SI (selectivity index) = IC50” value is recorded as 7.50.

Consider `CC(C)C[C@@H](CS(=O)(=O)NCc1ccc(F)c(F)c1)NC(=O)OCc1ccccc1` [Compound 5l, Benzyl {(2S)-1-[(3,4-difluorobenzyl)sulfamoyl]-4-methylpentan-2-yl}carbamate], for which 92.9 ± 2.47 µM corresponded to half-maximal inhibition against AChE from electric eel (IC50). For the same molecule, on BChE from equine serum [1], the 50% inhibitory concentration (IC50) amounted to 55.6 ± 1.38 µM and the “SI (selectivity index) = IC50” value was found to be 1.67.

Regarding `C[C@@H](CS(=O)(=O)NCc1ccccc1)NC(=O)OCc1ccccc1` [Compound 5a, Benzyl [(2S)-1-(benzylsulfamoyl)propan-2-yl]carbamate], at AChE from electric eel, it took 90.6 ± 5.7 µM to reach half-maximal inhibition (IC50). Further, at BChE from equine serum [1], half-maximal inhibition (IC50) required 100 ± 4.26 µM and the “SI (selectivity index) = IC50” value came to 0.90.

Take `CCN(C)C(=O)Oc1cccc([C@H](C)N(C)C)c1` [RIV, rivastigmine]: in the data set on human BChE [2] (24 h), the “reactivation of human BChE after 24 h” value is given as < 10%. In addition, in the data set with human BChE [3], the “bimolecular rate constant for the carbamylation” value was 1500 M⁻¹ s⁻¹.

The molecule `O=C(N[C@@H](Cc1ccccc1)CS(=O)(=O)N[C@@H]1CCCO1)OCc1ccccc1` [Compound 5i, Benzyl {(2S)-1-phenyl-3-[(2S)-tetrahydrofuran-2-ylsulfamoyl]propan-2-yl}carbamate] registered an IC50 against AChE from electric eel of 61.7 ± 1.47 µM. In addition, at BChE from equine serum [1], it took 112 ± 3.41 µM to reach half-maximal inhibition (IC50) and the “SI (selectivity index) = IC50” value is reported as 0.55.

`CC(C)C[C@@H](CS(=O)(=O)Nc1ccc(Cl)c(Cl)c1)NC(=O)OCc1ccccc1` [Compound 5n, Benzyl {(2S)-1-[(3,4-dichlorophenyl)sulfamoyl]-4-methylpentan-2-yl}carbamate] displayed a half-maximal inhibitory concentration (IC50) against AChE from electric eel of 95.1 ± 2.77 µM. Further, on BChE from equine serum [1], half-maximal inhibition (IC50) was put at 13.5 ± 0.51 µM and the “SI (selectivity index) = IC50” value is reported as 7.04.

With `CC(C)C[C@@H](CS(=O)(=O)NCc1ccccc1)NC(=O)OCc1ccccc1` [Compound 5c, Benzyl [(2S)-1-(benzylsulfamoyl)-4-methylpentan-2-yl]carbamate], the figures for the IC50 on AChE from electric eel and against BChE from equine serum [1] were 91.8 ± 4.89 µM and 8.52 ± 0.32 µM, respectively. Besides, the “fold higher inhibitory activity against BChE than rivastigmine” value at BChE from equine serum [1] was “approximately 5 fold”.

Consider `O=C(N[C@@H](Cc1ccccc1)CS(=O)(=O)Nc1ccc2c(c1)OCO2)OCc1ccccc1` [Compound 5h, Benzyl [(2S)-1-(1,3-benzodioxol-5-ylsulfamoyl)-3-phenylpropan-2-yl]carbamate], for which the concentration for half-maximal inhibition (IC50) against AChE from electric eel was determined as 61.39 ± 0.47 µM; at BChE from equine serum [1], 11.5 ± 0.28 µM. On BChE from equine serum [1], the “SI (selectivity index) = IC50” value was 5.32.

Regarding `CCCNS(=O)(=O)C[C@H](CC(C)C)NC(=O)OCc1ccccc1` [Compound 5e, Benzyl [(2S)-4-methyl-1-(propylsulfamoyl)pentan-2-yl]carbamate], the concentration for half-maximal inhibition (IC50) on AChE from electric eel was 108 ± 2.39 µM. Moreover, on BChE from equine serum [1], 58.9 ± 1.88 µM corresponded to half-maximal inhibition (IC50) and the “SI (selectivity index) = IC50” value was 1.84.

`COc1ccccc1CNS(=O)(=O)C[C@H](CC(C)C)NC(=O)OCc1ccccc1` [Compound 5k, Benzyl {(2S)-1-[(2-methoxybenzyl)sulfamoyl]-4-methylpentan-2-yl}carbamate] returned an IC50 against AChE from electric eel of 150 ± 3.82 µM. The starting material remaining in data set [4] (buffer pH 6, 37 °C, after 6 hrs) is listed as 13%; in data set [4] (buffer pH 7.4, 37 °C, 48 hours), 36%; in data set [4] (buffer pH 8, 37 °C, 4 hours), 5%. The “substance decomposed in the first hour” value in data set [4] (buffer pH 6, 37 °C, first hour) amounted to 75%.

With `O=C(N[C@@H](Cc1ccccc1)CS(=O)(=O)NCc1ccccc1)OCc1ccccc1` [Compound 5b, Benzyl [(2S)-1-(benzylsulfamoyl)-3-phenylpropan-2-yl]carbamate], the results for the concentration for half-maximal inhibition (IC50) on AChE from electric eel and against BChE from equine serum [1] were 76.9 ± 1.52 µM and 86.1 ± 1.91 µM, respectively. In addition, the “SI (selectivity index) = IC50” value at BChE from equine serum [1] was found to be 0.89.

Consider `CC(C)C[C@@H](CS(=O)(=O)Nc1ccccc1)NC(=O)OCc1ccccc1` [Compound 5d, Benzyl [(2S)-4-methyl-1-(phenylsulfamoyl)pentan-2-yl]carbamate], for which the half-maximal inhibitory concentration (IC50) on AChE from electric eel came out at 55.6 ± 1.38 µM. On BChE from equine serum [1], the IC50 was found to be 16.54 ± 0.1 µM and the “SI (selectivity index) = IC50” value worked out at 3.36.

For `CC(C)C[C@@H](CS(=O)(=O)NCc1ccc(Cl)cc1)NC(=O)OCc1ccccc1` [Compound 5j, Benzyl {(2S)-1-[(4-chlorobenzyl)sulfamoyl]-4-methylpentan-2-yl}carbamate], the IC50 at AChE from electric eel was found to be 67.47 ± 0.37 µM; against BChE from equine serum [1], 6.57 ± 0.12 µM. In addition, at BChE from equine serum [5], the “reactivation of BChE after 24 h” value stood at 37%. Also, the “fold higher inhibitory activity against BChE than rivastigmine” value on BChE from equine serum [1] is “approximately 5 fold”. Besides, the “apparent bimolecular rate constant (ki) of carbamylation” value at BChE from equine serum [6] turned out to be 1.084 ± 0.0535 M⁻¹ s⁻¹.

Broadly, the IC50 is the midpoint of a concentration-inhibition curve.
